Data on five compounds can be found in PubChem BioAssay (NCI).

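Five compound concentrations were applied to cells in 96-well plates for 48 hours; endpoints were derived by simple linear interpolation of the resulting dose-response curve. At the TGI there is no net growth.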

The test system of one experiment is A549 NSCLC. Nature of the experiment: NCI anticancer screen, dose series, 48 h.
Take `CNS(=O)(=O)NNS(=O)(=O)c1ccc(Br)cc1`: the TGI was greater than 100 µM.
Same read-out and setting: the value for `Cc1ccc(NC(=O)CSc2nnc(-c3ccc(N=Cc4ccc(Cl)cc4)cc3)o2)cc1` was greater than 100 µM.
On the same count and under the same terms, the value for `CCC1CCc2c(c(=O)oc3c2cc(OC)c2cccc(OC)c23)C1` (configuration not stated) was greater than 100 µM; that for `CCOC(=O)CO/N=C1/C(c2c(O)[nH]c3ccccc23)=Nc2ccccc21` was greater than 100 µM; that for `COC(=O)C1=C(C(=O)Nc2cccnc2Cl)N(c2ccc(OC)cc2[N+](=O)[O-])C(c2ccc(C)cc2)=CC1c1ccc(OC)cc1OC` (configuration not stated) was 40.9 µM.

In a further experiment the test system is COLO 205 colon. Nature of the experiment: NCI anticancer screen, dose series, 48 h.
`CNS(=O)(=O)NNS(=O)(=O)c1ccc(Br)cc1` came in with a TGI greater than 100 µM.
As for `Cc1ccc(NC(=O)CSc2nnc(-c3ccc(N=Cc4ccc(Cl)cc4)cc3)o2)cc1`, the TGI is greater than 100 µM.
Same read-out and setting: the value for `CCC1CCc2c(c(=O)oc3c2cc(OC)c2cccc(OC)c23)C1` (configuration not stated) was greater than 100 µM; that for `CCOC(=O)CO/N=C1/C(c2c(O)[nH]c3ccccc23)=Nc2ccccc21` was greater than 100 µM; that for `COC(=O)C1=C(C(=O)Nc2cccnc2Cl)N(c2ccc(OC)cc2[N+](=O)[O-])C(c2ccc(C)cc2)=CC1c1ccc(OC)cc1OC` (configuration not stated) was 31.9 µM.

For a further experiment, the system named is LOX IMVI melanoma. Nature of the experiment: NCI anticancer screen, dose series, 48 h.
As to `CNS(=O)(=O)NNS(=O)(=O)c1ccc(Br)cc1`, the TGI is greater than 100 µM.
Still for that read-out and setting: to `Cc1ccc(NC(=O)CSc2nnc(-c3ccc(N=Cc4ccc(Cl)cc4)cc3)o2)cc1` belongs greater than 100 µM; to `CCOC(=O)CO/N=C1/C(c2c(O)[nH]c3ccccc23)=Nc2ccccc21`, greater than 100 µM; to `COC(=O)C1=C(C(=O)Nc2cccnc2Cl)N(c2ccc(OC)cc2[N+](=O)[O-])C(c2ccc(C)cc2)=CC1c1ccc(OC)cc1OC` (configuration not stated), 17 µM.

In another experiment the test system is ACHN renal. Description: NCI anticancer screen, dose series, 48 h.
The compound `CNS(=O)(=O)NNS(=O)(=O)c1ccc(Br)cc1` gave a TGI greater than 100 µM.
Same read-out and setting: the value for `Cc1ccc(NC(=O)CSc2nnc(-c3ccc(N=Cc4ccc(Cl)cc4)cc3)o2)cc1` was greater than 100 µM.
The compound `CCC1CCc2c(c(=O)oc3c2cc(OC)c2cccc(OC)c23)C1` (configuration not stated) displayed a TGI greater than 100 µM.
In the case of `CCOC(=O)CO/N=C1/C(c2c(O)[nH]c3ccccc23)=Nc2ccccc21`, the TGI is greater than 100 µM.
Still for that read-out and setting: to `COC(=O)C1=C(C(=O)Nc2cccnc2Cl)N(c2ccc(OC)cc2[N+](=O)[O-])C(c2ccc(C)cc2)=CC1c1ccc(OC)cc1OC` (configuration not stated) belongs greater than 81.6 µM.

For the next experiment, the system named is BT-549 breast. Description: NCI anticancer screen, dose series, 48 h.
As to `CCOC(=O)CO/N=C1/C(c2c(O)[nH]c3ccccc23)=Nc2ccccc21`, the TGI is greater than 100 µM.
The compound `COC(=O)C1=C(C(=O)Nc2cccnc2Cl)N(c2ccc(OC)cc2[N+](=O)[O-])C(c2ccc(C)cc2)=CC1c1ccc(OC)cc1OC` (configuration not stated) registered a TGI greater than 100 µM.

Another experiment has as its system OVCAR-4 ovarian. Nature of the experiment: NCI anticancer screen, dose series, 48 h.
On to `CNS(=O)(=O)NNS(=O)(=O)c1ccc(Br)cc1`, for which the TGI was greater than 100 µM.
Same read-out and setting: the value for `Cc1ccc(NC(=O)CSc2nnc(-c3ccc(N=Cc4ccc(Cl)cc4)cc3)o2)cc1` was greater than 100 µM.
The same measure, in the same setting: the value for `CCC1CCc2c(c(=O)oc3c2cc(OC)c2cccc(OC)c23)C1` (configuration not stated) was greater than 100 µM; that for `CCOC(=O)CO/N=C1/C(c2c(O)[nH]c3ccccc23)=Nc2ccccc21` was 16.5 µM; that for `COC(=O)C1=C(C(=O)Nc2cccnc2Cl)N(c2ccc(OC)cc2[N+](=O)[O-])C(c2ccc(C)cc2)=CC1c1ccc(OC)cc1OC` (configuration not stated) was greater than 100 µM.

In a further experiment the test system is T-47D breast. Nature of the experiment: NCI anticancer screen, dose series, 48 h.
For `CCOC(=O)CO/N=C1/C(c2c(O)[nH]c3ccccc23)=Nc2ccccc21`, the TGI amounted to 45.8 µM.
Still for that read-out and setting: the value for `COC(=O)C1=C(C(=O)Nc2cccnc2Cl)N(c2ccc(OC)cc2[N+](=O)[O-])C(c2ccc(C)cc2)=CC1c1ccc(OC)cc1OC` (configuration not stated) was 88.3 µM.

For a further experiment, the system named is OVCAR-8 ovarian. Nature of the experiment: NCI anticancer screen, dose series, 48 h.
As for `CNS(=O)(=O)NNS(=O)(=O)c1ccc(Br)cc1`, the TGI was greater than 100 µM.
Same read-out and setting: the value for `Cc1ccc(NC(=O)CSc2nnc(-c3ccc(N=Cc4ccc(Cl)cc4)cc3)o2)cc1` was greater than 100 µM.
On the same count and under the same terms, the value for `CCC1CCc2c(c(=O)oc3c2cc(OC)c2cccc(OC)c23)C1` (configuration not stated) was greater than 100 µM; that for `CCOC(=O)CO/N=C1/C(c2c(O)[nH]c3ccccc23)=Nc2ccccc21` was greater than 100 µM.
The compound `COC(=O)C1=C(C(=O)Nc2cccnc2Cl)N(c2ccc(OC)cc2[N+](=O)[O-])C(c2ccc(C)cc2)=CC1c1ccc(OC)cc1OC` (configuration not stated) had a TGI of 31.1 µM.

For a further experiment, the system named is SK-MEL-5 melanoma. Description: NCI anticancer screen, dose series, 48 h.
As to `CNS(=O)(=O)NNS(=O)(=O)c1ccc(Br)cc1`, the TGI is greater than 100 µM.
On the same count and under the same terms, to `Cc1ccc(NC(=O)CSc2nnc(-c3ccc(N=Cc4ccc(Cl)cc4)cc3)o2)cc1` belongs greater than 100 µM; to `CCC1CCc2c(c(=O)oc3c2cc(OC)c2cccc(OC)c23)C1` (configuration not stated), 80.9 µM.
Still for that read-out and setting: to `CCOC(=O)CO/N=C1/C(c2c(O)[nH]c3ccccc23)=Nc2ccccc21` belongs greater than 100 µM; to `COC(=O)C1=C(C(=O)Nc2cccnc2Cl)N(c2ccc(OC)cc2[N+](=O)[O-])C(c2ccc(C)cc2)=CC1c1ccc(OC)cc1OC` (configuration not stated), greater than 73.3 µM.

The test system of a further experiment is OVCAR-3 ovarian. Nature of the experiment: NCI anticancer screen, dose series, 48 h.
For the compound `CCOC(=O)CO/N=C1/C(c2c(O)[nH]c3ccccc23)=Nc2ccccc21`, the TGI amounted to 55 µM.
Same read-out and setting: the value for `COC(=O)C1=C(C(=O)Nc2cccnc2Cl)N(c2ccc(OC)cc2[N+](=O)[O-])C(c2ccc(C)cc2)=CC1c1ccc(OC)cc1OC` (configuration not stated) was 43.7 µM.

Another experiment has as its system DU-145 prostate. Description: NCI anticancer screen, dose series, 48 h.
With `CCOC(=O)CO/N=C1/C(c2c(O)[nH]c3ccccc23)=Nc2ccccc21`, the TGI was greater than 100 µM.
The same measure, in the same setting: the value for `COC(=O)C1=C(C(=O)Nc2cccnc2Cl)N(c2ccc(OC)cc2[N+](=O)[O-])C(c2ccc(C)cc2)=CC1c1ccc(OC)cc1OC` (configuration not stated) was greater than 90.1 µM.
